For 4 molecules, Activity results are on record in patent US20200270588A1, “GLUCOSYL TRANSFERASE POLYPEPTIDES AND METHODS OF USE” (Syngenta Participations AG, priority 2017, published 2020).

What all share (experiment): UDP-Glo glucosyl transferase assay, purified enzyme
Assay type in all cases: biochemical

The target of experiment [1] is T1, SEQ ID NO 17, zmBX9 S117V, M279F, A334K mutant (Zea mays, UniProt B4G072, A334K/M279F/S117V).
T1 construct: polypeptides were the C-terminally his-tagged; His tag (C); made in house
The following applies: herbicide mM: V 0.300, VI 0.250, VII 0.210; IV, VIII, XI, XXI, XX, XVIII, XVI, XV, XIV 0.200; others 1.000.

Experiment [2] concerns the target T2, SEQ ID NO 21, mutant of Zea mays bx9 glucosyl transferase (Zea mays, UniProt B4G072, A334K/F21Y/L194V/M279F/S117V).
T2 construct: His tag (C); made in house
Conditions: lower block, concentration printed only in upper block: V 0.300, VII 0.210; IV, VIII, XI, XXI, XX, XVIII, XVI, XV, XIV 0.200; others 1.000 mM.

For experiment [3], the target named is T3, SEQ ID NO 22, mutant of Zea mays bx9 glucosyl transferase (Zea mays, UniProt B4G072, A334K/F21Y/M279F/S117V/T220P).
T3 construct: His tag (C); made in house
The following applies: lower block, concentration printed only in upper block: V 0.300, VII 0.210; IV, VIII, XI, XXI, XX, XVIII, XVI, XV, XIV 0.200; others 1.000 mM.

In experiment [4] the target is T4, SEQ ID NO 18, mutant of Zea mays bx9 glucosyl transferase (Zea mays, UniProt B4G072, A281K/A334K/F21Y/M279F/S117V).
T4 construct: His tag (C); made in house
Conditions: herbicide mM: V 0.300, VI 0.250, VII 0.210; IV, VIII, XI, XXI, XX, XVIII, XVI, XV, XIV 0.200; others 1.000.

For experiment [5], the target named is T5, SEQ ID NO 19, mutant of Zea mays bx9 glucosyl transferase (Zea mays, UniProt B4G072, A281K/A334K/L194V/M279F/S117V).
T5 construct: His tag (C); made in house
The following applies: herbicide mM: V 0.300, VI 0.250, VII 0.210; IV, VIII, XI, XXI, XX, XVIII, XVI, XV, XIV 0.200; others 1.000.

For experiment [6], the target named is T6, SEQ ID NO 23, mutant of Zea mays bx9 glucosyl transferase (Zea mays, UniProt B4G072, A334K/F21Y/L194C/M279F/S117V).
T6 construct: His tag (C); made in house
The following applies: lower block, concentration printed only in upper block: V 0.300, VII 0.210; IV, VIII, XI, XXI, XX, XVIII, XVI, XV, XIV 0.200; others 1.000 mM.

T2 sequence (B4G072 whole entry F21Y/S117V/L194V/M279F/A334K): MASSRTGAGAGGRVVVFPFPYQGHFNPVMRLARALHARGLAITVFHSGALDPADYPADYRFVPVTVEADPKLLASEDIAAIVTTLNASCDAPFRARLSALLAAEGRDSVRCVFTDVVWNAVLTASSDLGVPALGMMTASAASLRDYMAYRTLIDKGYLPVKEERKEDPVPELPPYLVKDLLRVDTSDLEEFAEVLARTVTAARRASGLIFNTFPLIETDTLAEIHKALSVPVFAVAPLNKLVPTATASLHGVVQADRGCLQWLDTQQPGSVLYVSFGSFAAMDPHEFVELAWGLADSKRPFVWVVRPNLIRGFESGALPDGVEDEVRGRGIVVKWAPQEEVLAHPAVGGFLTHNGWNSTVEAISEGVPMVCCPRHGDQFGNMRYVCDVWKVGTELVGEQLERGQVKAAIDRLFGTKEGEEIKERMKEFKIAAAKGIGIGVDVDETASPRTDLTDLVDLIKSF
T6 sequence (B4G072 whole entry F21Y/S117V/L194C/M279F/A334K): as the sequence (B4G072 whole entry F21Y/S117V/L194V/M279F/A334K) above, with V194C counted along it
T3 sequence (B4G072 whole entry F21Y/S117V/T220P/M279F/A334K): as the sequence (B4G072 whole entry F21Y/S117V/L194V/M279F/A334K) above, with V194L, T220P counted along it
T1 sequence (B4G072 whole entry S117V/M279F/A334K): as the sequence (B4G072 whole entry F21Y/S117V/L194V/M279F/A334K) above, with Y21F, V194L counted along it
T5 sequence (B4G072 whole entry S117V/L194V/M279F/A281K/A334K): as the sequence (B4G072 whole entry F21Y/S117V/L194V/M279F/A334K) above, with Y21F, A281K counted along it
T4 sequence (B4G072 whole entry F21Y/S117V/M279F/A281K/A334K): as the sequence (B4G072 whole entry F21Y/S117V/L194V/M279F/A334K) above, with V194L, A281K counted along it

With `CN1CC(O)N(c2cc(C(F)(F)F)c(Cl)cn2)C1=O` (stereo not shown) [XI], the Activity in experiment [1] amounted to 0.120 pmol/sec/pmol enzyme; in experiment [2], 0.374 pmol/sec/pmol enzyme; in experiment [3] it was 0.548 pmol/sec/pmol enzyme; in experiment [4], 0.710 pmol/sec/pmol enzyme; in experiment [5], 0.898 pmol/sec/pmol enzyme; in experiment [6] it was 0.227 pmol/sec/pmol enzyme.

`Cc1cnc(N2C(=O)N(C)CC2O)cc1C(F)(F)F` (stereo not shown) [XVIII]: the Activity in experiment [1] was 0.231 pmol/sec/pmol enzyme; in experiment [2] it was 0.425 pmol/sec/pmol enzyme; in experiment [3] it was 0.933 pmol/sec/pmol enzyme; in experiment [4], 0.898 pmol/sec/pmol enzyme; in experiment [5], 0.964 pmol/sec/pmol enzyme; in experiment [6] it was 0.253 pmol/sec/pmol enzyme.

`CON1C(=O)N(c2cc(C(F)(F)F)ccn2)C(O)[C@@H]1C` (stereo partly shown) [Compound VI]: the Activity in experiment [1] is given as 1.003 pmol/sec/pmol enzyme.

Take `CN1CC(O)N(c2cc(C(F)(F)F)ccn2)C1=O` (stereo not shown) [Compound V]: the Activity in experiment [1] worked out at 0.565 pmol/sec/pmol enzyme; in experiment [2], 1.548 pmol/sec/pmol enzyme; in experiment [3], 1.221 pmol/sec/pmol enzyme; in experiment [4] it was 1.582 pmol/sec/pmol enzyme; in experiment [5], 1.651 pmol/sec/pmol enzyme; in experiment [6], 1.246 pmol/sec/pmol enzyme.
